These results are taken from PubChem BioAssay AID1508612.

This series is described as follows: passive permeability, PAMPA, ADME assay (AID 1508612). Conditions: pH 7.4, 30.0 min, 50.0 µM. Background: PAMPA measures passive passage across an artificial lipid membrane.

`Nc1ncnc(N2CCc3ccccc32)c1[N+](=O)[O-]`: the Papp (commonly a coefficient for how fast a substance crosses the barrier) was 295 ×10⁻⁶ cm/s.
Next, `Oc1ccc(CNc2ccc(C(F)(F)F)cc2F)c2cccnc12`: 150 ×10⁻⁶ cm/s; `Fc1ccc(CN2CCOC[C@H]2c2ncc(-c3ccc(Cl)s3)[nH]2)cc1`: > 1000 ×10⁻⁶ cm/s.
For `COc1ccc(Cn2c(C(=O)O)c(CNCc3cccc(OC)c3)c3ccc(C)cc32)cc1`, the Papp was 361 ×10⁻⁶ cm/s.
`Cc1ccc(NC(=O)c2c(N3CCCC3=O)c3cc(C)ccc3n2C)c(C)c1`: the Papp was > 1000 ×10⁻⁶ cm/s.
Next, `c1ccc2c(NC3CCCCC3)nc(-c3ccncc3)nc2c1`: > 1000 ×10⁻⁶ cm/s; `Oc1ccc(NCc2ccccc2OCc2ccccc2Cl)cc1`: 79.5 ×10⁻⁶ cm/s; `COc1ccccc1N1CCN(CCN(C(=O)c2ccc(I)cc2)c2ccccn2)CC1`: > 1000 ×10⁻⁶ cm/s.
Take `COc1ccc(-c2ccc3ncc(Nc4ccncc4)n3n2)cc1OC`: the Papp came out at 763 ×10⁻⁶ cm/s.
Consider `COc1ncc(-c2ccc3c(Nc4cc(Oc5cc(F)cc(F)c5)cc(C(=O)O)c4)c(S(=O)(=O)NC4CC4)cnc3c2)c(OC)n1`, for which the Papp was < 1 ×10⁻⁶ cm/s.
Compound `CN(C)C(=O)NC1CCC(CCN2CCN(c3cccc(Cl)c3Cl)CC2)CC1` (configuration not stated) displayed a Papp of 514 ×10⁻⁶ cm/s.
Turning to `CCc1ccc2oc(NC3=NC(c4[nH]ncc4Cl)C4=C(CCCC4=O)N3)nc2c1` (configuration not stated), the Papp came to 916 ×10⁻⁶ cm/s.
In turn, `Oc1c(C(Nc2nccs2)c2ccc(C(F)(F)F)cc2)ccc2cccnc12` (configuration not stated) came in with a Papp of 41.6 ×10⁻⁶ cm/s.
Turning to `COc1cccc(CNc2ccc(S(=O)(=O)Nc3nccs3)cc2)c1`, the Papp is 342 ×10⁻⁶ cm/s.
In turn, `CN(C(=O)CSc1nc2ccc(NC(=O)c3ccc(F)cc3)cc2s1)c1ccccc1` displayed a Papp of 741 ×10⁻⁶ cm/s.
`Cc1noc(C)c1-c1ccc(-c2cc(C(N)=O)c(NC(N)=O)s2)c(O[C@H]2CCNC2)c1`: the Papp was < 1 ×10⁻⁶ cm/s.
`O=C(Nc1ccc(F)c(C(F)(F)F)c1)Nc1nnc(-c2ccncc2)s1`: the Papp is 38.5 ×10⁻⁶ cm/s.
On to `COc1ccc(C(=O)Nc2ccc3c(c2)N(C2CCCC2)C(=O)c2ccccc2S3)cc1OC`, for which the Papp is 15.7 ×10⁻⁶ cm/s.
On to `COc1ccc(-n2nc(C3CCCN(C(=O)c4ccccc4)C3)[nH]c2=O)cc1` (configuration not stated), for which the Papp was < 1 ×10⁻⁶ cm/s.
Next, `NC(=O)C1CCN(c2ncc(-c3ccc(Br)cc3)s2)CC1`: 688 ×10⁻⁶ cm/s; `CCN1C(=O)c2ccccc2[S@](=O)c2ccc(C(=O)NCc3ccc(C#N)cc3)cc21`: 872 ×10⁻⁶ cm/s.
`Cc1ccc(-c2cc(C(=O)Nc3cccc(S(N)(=O)=O)c3)c3ccccc3n2)cc1C` gave a Papp of 11.8 ×10⁻⁶ cm/s.
Consider `CCN(C(=O)C(NS(=O)(=O)c1ccc(Br)s1)c1ccccc1)c1ccc(C)c(C)c1` (configuration not stated), for which the Papp was 392 ×10⁻⁶ cm/s.
Regarding `CCOC(=O)c1ccc(-n2cnc3cc(C(=O)N4CCCCC4)ccc32)cc1`, the Papp is > 1000 ×10⁻⁶ cm/s.
On to `O=C(NC1CCCc2c1cnn2-c1ccc(F)cc1F)c1ccccc1` (configuration not stated), for which the Papp is > 1000 ×10⁻⁶ cm/s.
Turning to `O=C1Nc2ccccc2/C1=C\c1ccc([N+](=O)[O-])cc1`, the Papp amounted to 455 ×10⁻⁶ cm/s.
Next, `CCc1nc2c(sc3nc4c(cc32)COC(C)(C)C4)c(=O)n1Cc1ccco1`: > 1000 ×10⁻⁶ cm/s.
With `Cc1nnc(N2C(=O)c3oc4ccccc4c(=O)c3C2c2ccc(F)cc2)s1` (configuration not stated), the Papp amounted to 314 ×10⁻⁶ cm/s.
With `COc1cccc(CNc2ccc(S(=O)(=O)Nc3ccc(N4CCNCC4)nc3)cc2)c1O`, the Papp is 10.7 ×10⁻⁶ cm/s.
With `COc1ccc(-n2nc(C3CCCN([S+](=O)([O-])c4cccc(C(F)(F)F)c4)C3)[nH]c2=O)cc1` (configuration not stated), the Papp was determined as 569 ×10⁻⁶ cm/s.
Next, `Cc1cc(C)nc(NC(=S)N2CCN(c3cccc([N+](=O)[O-])c3)CC2)c1`: > 1000 ×10⁻⁶ cm/s; `CCOc1cc(-c2nccc3cc(OC)c(OC)cc23)cc(OCC)c1OCC`: > 1000 ×10⁻⁶ cm/s.
Turning to `CCOc1ccccc1N(CC(=O)Nc1cc(OC)ccc1OC)S(=O)(=O)c1ccccc1`, the Papp was 968 ×10⁻⁶ cm/s.
Next, `COc1ccccc1N1CCN(c2ccc3cc(S(=O)(=O)N4CCCCC4)ccc3n2)CC1`: > 1000 ×10⁻⁶ cm/s.
Next, `CC(C)c1ccccc1-c1ncc(F)c(NCC2CCN(c3cnccn3)C2)n1` (configuration not stated): > 1000 ×10⁻⁶ cm/s; `CNC(=O)c1nn(C)c2c1C(C)(C)Cc1cnc(Nc3ccc(N4CCN(C)CC4)cc3)nc1-2`: > 1000 ×10⁻⁶ cm/s.
Compound `CCCc1ccc(-c2csc(NC(=O)c3ccncc3NS(=O)(=O)c3ccc(C)cc3)n2)cc1` came in with a Papp of 755 ×10⁻⁶ cm/s.
Next, `CCOc1ccc(CCNC(=O)c2cc3ncccc3n2Cc2cccc(C)n2)cc1OCC`: 491 ×10⁻⁶ cm/s; `O=C1Nc2ccc(I)cc2C1=Cc1cc(Br)c(O)c(Br)c1`: 150 ×10⁻⁶ cm/s; `CC(C)c1ccccc1-c1ncc(F)c(NCc2ccc(-c3cccnc3)s2)n1`: > 1000 ×10⁻⁶ cm/s.
Compound `Cc1ccc(S(=O)(=O)Nc2cnccc2C(=O)Nc2nc(-c3ccccc3Cl)cs2)cc1` showed a Papp of 46 ×10⁻⁶ cm/s.
Next, `Cc1ccc(S(=O)(=O)Nc2cc(Br)ccc2C(=O)Nc2nc(-c3ccccc3)cs2)cc1`: 7.71 ×10⁻⁶ cm/s; `CC1(C)CNc2cc(NC(=O)c3cccnc3NCc3ccncc3)ccc21`: > 1000 ×10⁻⁶ cm/s.
Compound `O=C1Nc2cccc(Cl)c2/C1=C\c1cc(Cl)c(O)c(Cl)c1` displayed a Papp of 93.9 ×10⁻⁶ cm/s.
`Cc1cccc(-c2noc([C@@H]3Cc4nc[nH]c4CN3)n2)c1` yielded a Papp of 343 ×10⁻⁶ cm/s.
Take `COC(=O)c1c(NC(=O)Cc2coc3cc(C)ccc23)sc2c1CCC2`: the Papp turned out to be 26 ×10⁻⁶ cm/s.
`COc1ccnc(NC(=S)N2CCN(c3ccccc3C(F)(F)F)CC2)c1` registered a Papp of 489 ×10⁻⁶ cm/s.
For the compound `CCCCCn1c(CCCNC(=O)c2ccccc2OC)nc2ccccc21`, the Papp is > 1000 ×10⁻⁶ cm/s.
Regarding `Oc1ccc(CNc2cccnc2)c2cccnc12`, the Papp amounted to 371 ×10⁻⁶ cm/s.
Next, `COCCN1CCNc2nc(COc3ccc(C(C)C)cc3)n(Cc3ccccc3)c2C1=O`: 12 ×10⁻⁶ cm/s; `N[C@H]1CN(c2c(F)cc3c(=O)c(C(=O)O)cn(C4C[C@@H]4F)c3c2Cl)CC12CC2` (some centres not stated): < 1 ×10⁻⁶ cm/s; `CC(=O)Nc1cccc(Nc2nc3ccccc3n3c(C)nnc23)c1`: 266 ×10⁻⁶ cm/s.
In turn, `O=C(NCCO)c1cccc(-c2cc(Nc3ccc(OC(F)(F)F)cc3)ncn2)c1` gave a Papp of 472 ×10⁻⁶ cm/s.
In the case of `O=C(Nc1ccc2oc(-c3cccnc3)nc2c1)c1ccc(-c2cccc(Cl)c2)o1`, the Papp turned out to be 310 ×10⁻⁶ cm/s.
Consider `CCNC(=O)c1coc(COc2ccc3c(c2)C(c2ccc(F)cc2)N(C(=O)CC(C)C)CC3)n1` (configuration not stated), for which the Papp came to 938 ×10⁻⁶ cm/s. This Papp is about 3-fold higher than that of the compound before.
Next, `Cc1ccc(-c2cc(C(=O)Nc3ncco3)c3ccccc3n2)cc1C`: 798 ×10⁻⁶ cm/s.
Next, `CC(=O)Nc1cccc(-c2csc(Nc3cc(C)ccn3)n2)c1`: > 1000 ×10⁻⁶ cm/s; `COC(=O)C1=C(C)NC(=O)CC1C(=O)Nc1ccc(Cl)cc1` (configuration not stated): 126 ×10⁻⁶ cm/s.
Next, `Cc1ccc(-c2cc(C(=O)Nc3ccc(S(=O)(=O)N(C)Cc4nccs4)cc3)c3ccccc3n2)cc1C`: < 1 ×10⁻⁶ cm/s; `CNC(=O)c1cccc(-c2cnc(Nc3cccc(C(F)(F)F)c3)c3c2CCO3)c1`: 58.9 ×10⁻⁶ cm/s.
Consider `COc1cccc2nc(-c3cccs3)nc(NN3C(=O)C=C(C)C3=O)c12`, for which the Papp was 353 ×10⁻⁶ cm/s.
`COc1cccc(N2CCN(c3ncc4c(n3)CCN(Cc3ccc(Br)cc3)C4)CC2)c1` gave a Papp of 25 ×10⁻⁶ cm/s.
With `CCOC(=O)c1c(C)c(-c2ccccc2)n(CC(=O)NCc2ccccc2)c1C`, the Papp was > 1000 ×10⁻⁶ cm/s.
In turn, `O=C(O)c1ccnc2cc(C(OCC3CCC(F)(F)CC3)c3ccccc3Cl)[nH]c12` (configuration not stated) yielded a Papp of 75.6 ×10⁻⁶ cm/s.
Next, `O=C1Nc2cc(Cl)ccc2/C1=C\c1cc(Cl)c(O)c(Cl)c1`: 78 ×10⁻⁶ cm/s; `CC(C)(C)c1ccc(C(=O)Nc2ccc3c(c2)CCCN3C(=O)c2cccs2)cc1`: 181 ×10⁻⁶ cm/s; `CCN1CCN(c2ncc3c(n2)CCN(Cc2cc(Br)cs2)C3)CC1`: 787 ×10⁻⁶ cm/s.
In the case of `CCOC(=O)c1ccc(N2C(=O)c3n[nH]c(-c4cccs4)c3C2c2ccc(Cl)cc2Cl)cc1` (configuration not stated), the Papp is 85.8 ×10⁻⁶ cm/s.
On to `C=Cc1ccc(C(=O)N2CCCC(CCC(=O)N3CCN(c4ccccn4)CC3)C2)cc1` (configuration not stated), for which the Papp is 421 ×10⁻⁶ cm/s.
For the compound `CN1Cc2c(cc(N3CCOCC3)nc2-c2ccccc2OC(F)(F)F)C1=O`, the apparent permeability coefficient (Papp) was > 1000 ×10⁻⁶ cm/s.
Compound `COc1cc(-c2nc(Nc3ccc(F)c(F)c3)c3ccccc3n2)cc(OC)n1` showed a Papp of 26.5 ×10⁻⁶ cm/s.
Next, `CC1=C(C(=O)NC2CCCCC2)C(c2ccccc2Br)N=C(Nc2nc3ccccc3o2)N1` (configuration not stated): 734 ×10⁻⁶ cm/s.
Regarding `CCCCOc1ccc(CNC(=O)c2cc3n(n2)CCCN(Cc2ccc(C)cc2)C3=O)cc1`, the Papp was < 1 ×10⁻⁶ cm/s.
`COc1ccc(C2=Nn3c(nnc3-c3ccncc3)SC2)cc1` yielded a Papp of 244 ×10⁻⁶ cm/s.
Next, `N#Cc1cnccc1-c1nc(Nc2ccc(F)c(F)c2)c2ccccc2n1`: 269 ×10⁻⁶ cm/s.
Regarding `Cn1ccc2cc(-c3csc(N4CCC(C(N)=O)CC4)n3)ccc21`, the Papp is 823 ×10⁻⁶ cm/s.
Next, `c1ccc2c(Nc3ccn[nH]3)nc(-c3ccncc3)nc2c1`: 880 ×10⁻⁶ cm/s; `Nc1ncc(S(=O)(=O)N2CCOCC2)s1`: 15.5 ×10⁻⁶ cm/s.
Next, `FC(F)(F)c1ccccc1-c1nc(NCc2ccc(-c3cccnc3)cc2)c2ccccc2n1`: 786 ×10⁻⁶ cm/s; `Cc1nc(N2CCN(c3ccccn3)CC2)c2c(C)c(C(=O)Nc3ccc(F)cc3Cl)sc2n1`: > 1000 ×10⁻⁶ cm/s; `O=C(c1cc2ccccc2[nH]1)N1CCc2c(n(Cc3cccnc3)n(CCc3ccccc3)c2=O)C1`: 381 ×10⁻⁶ cm/s.
Next, `CCc1ccc(NC(=O)c2[nH]c(C)c(C(C)=O)c2C)cc1[S+](=O)([O-])N1CCCCCC1`: 227 ×10⁻⁶ cm/s.
The compound `Cc1ccc(S(=O)(=O)Nc2cnccc2C(=O)Nc2nc(-c3ccc(Cl)c(Cl)c3)cs2)cc1` had a Papp of 51.5 ×10⁻⁶ cm/s.
In turn, `CC(=O)NCCNC(=O)c1ccc(-c2ncc3cnc(-c4cccc(F)c4)cn23)cc1` registered a Papp of 40.6 ×10⁻⁶ cm/s.
Take `O=C(NCCc1ccccn1)C1CC(=O)N(c2n[nH]c3cc(Br)ccc23)C1` (configuration not stated): the Papp is < 1 ×10⁻⁶ cm/s.
Next, `COc1cc(-c2nc(-c3c(C)noc3C)cc3c2cc(C)n3CCN(C)C)ccn1`: > 1000 ×10⁻⁶ cm/s; `Cc1ccc(S(=O)(=O)Nc2ncccc2C(=O)Nc2nc(-c3ccccc3)cs2)cc1`: 814 ×10⁻⁶ cm/s; `CC(=O)c1c(C)[nH]c(C(=O)Nc2cccc([S+](=O)([O-])Nc3c(C)cccc3C)c2)c1C`: 117 ×10⁻⁶ cm/s.
Next, `COc1ccc(-n2nc(C3CCCN(C(=O)Nc4ccccc4)C3)[nH]c2=O)cc1` (configuration not stated): 360 ×10⁻⁶ cm/s; `Fc1ccc(Oc2nc(-c3ccncc3)nc3ccccc23)cc1F`: 16.5 ×10⁻⁶ cm/s.
With `COc1cccc(CNc2ccc(S(=O)(=O)Nc3nccs3)cc2)c1O`, the apparent permeability (Papp) turned out to be 35.8 ×10⁻⁶ cm/s. Against the preceding compound, the Papp is about 2.2-fold higher.
Next, `Cc1ccc(-c2csc(NC(=O)c3ccncc3NS(=O)(=O)c3ccc(C)cc3)n2)cc1`: 530 ×10⁻⁶ cm/s.
